{"source": "patent US20120087980A1", "about": "“STIMULATION OF NEUROREGENERATION BY FLAVONOID GLYCOSIDES” (priority 2010, published 2012)", "key": {"RhoA": {"test_system": "RhoA", "assay": "RhoA G-LISA Activation Assay", "format": "cell-based", "conditions": "RhoA Activator for 40 min after 48 hr isoquercitrin incubation (control)", "experimental": "FIG. 6 illustrates RhoA activation. […] RhoA activity is depressed following administration of isoquercitrin for 48 hrs.\n(§1) Cell culture. The NG108-15 neuroblastoma/glioma cells and ND7/23 rat DRG/mouse neuroblastoma cells were seeded at 10^4 cells/cm^2 on laminin coated wells and stimulated for 48 hours with 40 μM isoquercitrin (Cat No 00140585, Sigma) alone or in combination with either 10 μM Rho Kinase inhibitor Y-27632 (Cat No Y0503, Sigma) or 0.25 μg/ml Rho inhibitor Exoenzyme C3 Transferase (Cat No CT04, Cytoskeleton). Later, isoquercitrin stimulated cells were incubated with 0.2 unit/ml Rho Activator Calpeptin (Cat No CN01, Cytoskeleton) or, alternatively with 0.25 μM Phospholipase C inhibitor U73122 (Cat No 662035, Calbiochem). Live Cell Imaging. During incubation, cells were observed by time-lapse live cell imaging with Cell-IQ (Chip-Man Technologies, Ltd). Quantitative analysis of neurite length/cell was performed using Cell-IQ Analyser Software. Cell imaging by Immunofluorescence. […] The plate was incubated with an HRP detection reagent for 15 min at 37° C. and, after addition of an HRP stop buffer, the absorbance was immediately recorded at 490 nm. […] The purity and concentration were determined using a Nanoprop ND 1000 (Nanoprop Technologies, Delaware, USA) and a Bioanalyzer 2100 (Agilent, Waldbronn, Germany). […]"}, "[1]": {"test_system": "PC3 human prostatic cancer cells, NIH 3T3 fibroblasts, and podocytes", "conditions": "PC3, NIH 3T3 fibroblasts, references [6-8]; cited from earlier work"}, "[2]": {"test_system": "NG108-15 neuroblastoma-glioma hybridoma cells and the ND7/23 neural cell line", "assay": "Incubation of neural cell lines with 15 flavonoids, neurite formation", "format": "cell-based", "conditions": "for neurite formation: screen of 15 flavonoids, NG108-15 and ND7/23 cells", "experimental": "as §1, with “Immunofluorescence. Cells were cultured for 48 hrs on a Chamber Slide™ System (Lab-Tek™) under the above described conditions. Then, the cells were fixed and permeabilized with 4% formaldehyde/0.1% Triton X100 in PBS for 20 min at 4° C. After blocking with PBS containing 20% FBS and 5% BSA for 1 h at room temperature, they were incubated with mAb anti-synaptotagmin-1 (1:200, SY Synaptic Systems) for 1 hr at room temperature. Following three washes in PBS, cells were incubated with Alexa Fluor® 488 goat anti-mouse IgG/IgM (Invitrogen) for 30 min at room temperature. Afterwards, cells were incubated with 0.13 μg/ml phalloidin in the dark for 30 min at 4° C. Finally DAPI was added and last 30 min. Samples were rinsed three times and kept in PBS. The imaging was performed using Confocal Laser Scanning Microscope (Carl Zeiss AG). Assay for RhoA activation.” for “Immunofluorescence.”"}, "PC 12 cells": {"test_system": "PC 12 cells", "conditions": "via the ERK pathway, reference [1]; cited from earlier work"}, "NG108 cells": {"test_system": "NG108 cells", "assay": "Microarray gene expression analysis (whole Mouse Genome 4x44k OligoMicroarrays)", "format": "cell-based", "conditions": "40 uM isoquercitrin", "experimental": "Cell culture. The NG108-15 neuroblastoma/glioma cells and ND7/23 rat DRG/mouse neuroblastoma cells were seeded at 10^4 cells/cm^2 on laminin coated wells and stimulated for 48 hours with 40 μM isoquercitrin (Cat No 00140585, Sigma) alone or in combination with either 10 μM Rho Kinase inhibitor Y-27632 (Cat No Y0503, Sigma) or 0.25 μg/ml Rho inhibitor Exoenzyme C3 Transferase (Cat No CT04, Cytoskeleton). Later, isoquercitrin stimulated cells were incubated with 0.2 unit/ml Rho Activator Calpeptin (Cat No CN01, Cytoskeleton) or, alternatively with 0.25 μM Phospholipase C inhibitor U73122 (Cat No 662035, Calbiochem). Live Cell Imaging. During incubation, cells were observed by time-lapse live cell imaging with Cell-IQ (Chip-Man Technologies, Ltd). Quantitative analysis of neurite length/cell was performed using Cell-IQ Analyser Software. Cell imaging by Immunofluorescence. Cells were cultured for 48 hrs on a Chamber Slide™ System (Lab-Tek™) under the above described conditions. Then, the cells were fixed and permeabilized with 4% formaldehyde/0.1% Triton X100 in PBS for 20 min at 4° C. After blocking with PBS containing 20% FBS and 5% BSA for 1 h at room temperature, they were incubated with mAb anti-synaptotagmin-1 (1:200, SY Synaptic Systems) for 1 hr at room temperature. Following three washes in PBS, cells were incubated with Alexa Fluor® 488 goat anti-mouse IgG/IgM (Invitrogen) for 30 min at room temperature. Afterwards, cells were incubated with 0.13 μg/ml phalloidin in the dark for 30 min at 4° C. Finally DAPI was added and last 30 min. Samples were rinsed three times and kept in PBS. The imaging was performed using Confocal Laser Scanning Microscope (Carl Zeiss AG). Assay for RhoA activation. For RhoA activation assay, the procedure followed the manufacture's instruction regarding RhoA G-LISA™ Activation Assay (Cytoskeleton). Briefly, grown cells were homogenized in a lysis buffer and were centrifuged at 14,000 rpm for 2 min. The supernatants, containing equal amount of proteins (60 μg/30 μl), were transferred into a 96 well plate and equal volumes of ice-cold binding buffer were added into each well. The plate was incubated for 30 min under shaking (400 rpm) at 4° C. Then they were incubated with diluted anti-RhoA primary antibodies followed by secondary antibodies while shaking (400 rpm) at room temperature for 45 min each. The plate was incubated with an HRP detection reagent for 15 min at 37° C. and, after addition of an HRP stop buffer, the absorbance was immediately recorded at 490 nm. Microarray and RT-PCR. Total cellular RNA was isolated using the RNAeasy spin columns with the DNAse digestion step. The purity and concentration were determined using a Nanoprop ND 1000 (Nanoprop Technologies, Delaware, USA) and a Bioanalyzer 2100 (Agilent, Waldbronn, Germany). All samples had 260/280 nm ratio above 1.8 and a 28S/18S ratio within 1.5-2. RNA (600 ng) was reverse transcribed into double-stranded complementary DNA (ds-cDNA) in the presence of RNA poly-A controls, RNA Spike-In Kit, Two-Color. The ds-cDNA was in vitro transcribed in the presence of Cy3 (control) and Cy5 (flavonoid-stimulated) labelled nucleotides using a Quick Amp labelling, two-color kit (Agilent P/N 5190-0444, Waldbronn, Germany). Transcription products (1.65 μg) were blocked, fragmented and hybridized to whole Mouse Genome 4×44k OligoMicroarrays (Agilent G4122F) for 17 h at 65° C. Arrays were then washed according to the manufacturer instructions and an Agilent Microarray Scanner used to measure the fluorescent intensity emitted by the labeled target. Total RNA was also reverse transcribed using oligo-dT primer and Superscript III enzyme (Invitrogen). […]"}}}
{"smiles": "CCCC[C@@H](C=O)NC(=O)[C@H](CC(C)C)NC(=O)OCc1ccccc1", "note": "[RhoA Activator]", "values": [{"measurement": "RhoA activation (G-LISA) after RhoA Activator", "setting": "RhoA", "result": "increases RhoA activation"}]}
{"smiles": "C[C@@H](N)[C@H]1CC[C@H](C(=O)Nc2ccncc2)CC1", "note": "[Y-27632]", "values": [{"measurement": "cell morphology on ROCK inhibition", "setting": "[1]", "result": "elongated morphology"}]}
{"smiles": "O=c1c(O)c(-c2ccc(O)c(O)c2)oc2cc(O)ccc12", "note": "[fisetin]", "values": [{"measurement": "neurite formation", "setting": "[2]", "result": "significant neurites"}, {"measurement": "neurite outgrowth in PC 12 cells", "setting": "PC 12 cells", "result": "induce neurite outgrowth"}]}
{"smiles": "O=c1c(O[C@@H]2O[C@H](CO)[C@@H](O)[C@H](O)[C@H]2O)c(-c2ccc(O)c(O)c2)oc2cc(O)cc(O)c12", "note": "[isoquercitrin, quercetin-3-β-D-glycoside]", "values": [{"measurement": "persistence of neurite networks", "setting": "[2]; in comparison to the other substances tested", "result": "up to 4 days of culture"}, {"measurement": "Fold-change, GABA A receptor-associated protein-like 1 Gene", "setting": "NG108 cells", "result": 2.361}, {"measurement": "Fold-change, calcium and integrin binding 1 (calmyrin) Gene", "setting": "NG108 cells", "result": 1.297}, {"measurement": "Fold-change, cholinergic receptor, nicotinic, alpha polypeptide 10 Gene", "setting": "NG108 cells", "result": 1.438}, {"measurement": "Fold-change, cortactin binding protein 2 Gene", "setting": "NG108 cells", "result": 1.518}, {"measurement": "Fold-change, dopamine receptor 4 Gene", "setting": "NG108 cells", "result": 1.248}, {"measurement": "Fold-change, glutamate receptor, ionotropic, N-methyl D-aspartate-associated protein 1 Gene", "setting": "NG108 cells", "result": 1.595}, {"measurement": "Fold-change, neural proliferation, differentiation and control gene 1 Gene", "setting": "NG108 cells", "result": 1.385}, {"measurement": "Fold-change, neuroligin 2 Gene", "setting": "NG108 cells", "result": 1.266}, {"measurement": "Fold-change, neurotrophin 5 Gene", "setting": "NG108 cells", "result": 1.325}, {"measurement": "Fold-change, protein kinase C and casein kinase substrate in neurons 1 Gene", "setting": "NG108 cells", "result": 1.398}, {"measurement": "Fold-change, reticulon 3 Gene", "setting": "NG108 cells", "result": 1.316}, {"measurement": "Fold-change, synapsin I Gene", "setting": "NG108 cells", "result": 1.287}, {"measurement": "Fold-change, synapsin II Gene", "setting": "NG108 cells", "result": 1.518}, {"measurement": "Fold-change, synaptogyrin 1 Gene", "setting": "NG108 cells", "result": 2.130}, {"measurement": "Fold-change, synaptopodin 2-like Gene", "setting": "NG108 cells", "result": 1.393}, {"measurement": "Fold-change, synaptotagmin I Gene", "setting": "NG108 cells", "result": 1.934}, {"measurement": "Fold-change, synaptotagmin IV Gene", "setting": "NG108 cells", "result": 1.825}, {"measurement": "Fold-change, synaptotagmin XI Gene", "setting": "NG108 cells", "result": 1.913}]}
{"smiles": "O=c1c(O)c(-c2ccc(O)cc2)oc2cc(O)cc(O)c12", "note": "[kaempferol]", "values": [{"measurement": "neurite formation", "setting": "[2]", "result": "significant neurites"}]}
